Key:
GAL4(DBD)-MR(LBD) = GAL4(DBD)-MR(LBD) (Homo sapiens (Human), UniProt P08235); experiment: Mineralocorticoid receptor transactivation, UAS-bla HEK 293T CELLSENSOR reporter assay, agonist mode; type: cell-based; conditions: for % Activation at 100 nM: control compound aldosterone; for EC50: 16 hours incubation, maximum concentration 100 nM, read-out: EC50 (nM) MR (Table 4: mineralocorticoid receptor potency)
Description: Mineralocorticoid receptor (MR) activation potency was assessed using a HEK 293T cell line containing the UAS-bla reporter (UAS-bla HEK 293T CELLSENSOR®). This cell line was stably cotransfected with an expression construct containing β-lactamase cDNA under control of the GAL4 Upstream Activator Sequence (UAS) and another expression construct encoding for the fusion protein GAL4(DBD)-MR(LBD). […] All assays were performed as 10-point dose responses using a half log-fold dilution series starting with a maximum compound concentration of 100 nM. The compounds were incubated for 16 hours. The activation of the fusion protein GAL4(DBD)-MR(LBD) leads to expression of the reporter β-lactamase which is detected by the conversion of a FRET substrate in a ratiometric assay format. This functional assay allows for measurement of receptor agonism by compounds and can be used to determine compound potency and selectivity. Assay reproducibility was determined by calculating Z′ values for untreated versus maximum stimulation. The Z′ value was greater than 0.6, indicating good reproducibility of the assay format.

[1] = target: Glucocorticoid receptor (GR) (Homo sapiens (Human), UniProt P04150); experiment: Glucocorticoid receptor transactivation, MMTV-bla HeLa CELLSENSOR reporter assay, agonist mode; type: cell-based; conditions: for % Activation at 100 nM: control compound dexamethasone; for EC50: 5 hours incubation, maximum concentration 100 nM
Chain of Glucocorticoid receptor (GR) (P04150 whole entry): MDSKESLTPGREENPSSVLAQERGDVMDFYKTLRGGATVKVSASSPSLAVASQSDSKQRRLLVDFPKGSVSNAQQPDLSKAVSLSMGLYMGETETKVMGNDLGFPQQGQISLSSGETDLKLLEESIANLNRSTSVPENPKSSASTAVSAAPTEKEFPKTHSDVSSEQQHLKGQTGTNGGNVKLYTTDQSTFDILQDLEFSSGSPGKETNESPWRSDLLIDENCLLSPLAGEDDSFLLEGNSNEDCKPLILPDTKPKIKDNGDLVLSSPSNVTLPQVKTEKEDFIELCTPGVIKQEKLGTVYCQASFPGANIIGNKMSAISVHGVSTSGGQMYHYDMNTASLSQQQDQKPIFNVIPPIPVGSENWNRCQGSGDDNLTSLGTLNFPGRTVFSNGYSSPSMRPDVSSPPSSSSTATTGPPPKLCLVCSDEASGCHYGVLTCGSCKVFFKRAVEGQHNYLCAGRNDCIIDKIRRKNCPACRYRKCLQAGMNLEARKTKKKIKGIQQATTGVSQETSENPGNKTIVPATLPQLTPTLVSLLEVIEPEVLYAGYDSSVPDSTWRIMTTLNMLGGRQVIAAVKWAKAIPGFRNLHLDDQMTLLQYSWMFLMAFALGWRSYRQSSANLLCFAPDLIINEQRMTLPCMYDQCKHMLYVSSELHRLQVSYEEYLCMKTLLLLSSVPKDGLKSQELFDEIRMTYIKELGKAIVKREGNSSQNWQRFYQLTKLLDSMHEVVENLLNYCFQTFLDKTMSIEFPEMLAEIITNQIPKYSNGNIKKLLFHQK

[2] = patients; eye drops; compared to synthetic GCs such as dexamethasone, prednisolone, fluorometholone; cited from earlier work

Chain of GAL4(DBD)-MR(LBD) (P08235 726-964): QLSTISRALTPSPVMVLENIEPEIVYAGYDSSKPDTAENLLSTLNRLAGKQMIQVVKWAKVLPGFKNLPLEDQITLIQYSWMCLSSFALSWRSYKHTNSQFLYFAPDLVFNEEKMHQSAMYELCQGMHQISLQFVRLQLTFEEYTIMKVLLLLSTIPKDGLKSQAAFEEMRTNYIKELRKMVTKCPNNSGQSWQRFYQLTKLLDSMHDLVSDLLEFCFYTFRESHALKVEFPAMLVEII

| SMILES | % Activation at 100 nM (GAL4(DBD)-MR(LBD)) [%] | EC50 (GAL4(DBD)-MR(LBD)) [nM] | % Activation at 100 nM [1] [%] | EC50 [1] [nM] | effect on intraocular pressure [2] |
| --- | --- | --- | --- | --- | --- |
| CCC(=O)O[C@]1(C(=O)CO)CC[C@H]2[C@@H]3CCC4=CC(=O)CC[C@]4(C)[C@H]3[C@@H](O)C[C@@]21C [drawing 25] | 76 | 3.17 |  |  |  |
| CCCCCCC(=O)O[C@]1(C(=O)CO)CC[C@H]2[C@@H]3CCC4=CC(=O)CC[C@]4(C)[C@H]3[C@@H](O)C[C@@]21C [drawing 26] | 72 | 5.27 |  |  |  |
| C[C@]12CCC(=O)C=C1CC[C@@H]1[C@@H]2[C@@H](O)C[C@@]2(C)[C@H]1CC[C@]2(O)C(=O)CO [drawing 18] |  |  | 43 |  |  |
| C[C@]12CCC(=O)C=C1CC[C@@H]1[C@@H]2[C@@H](O)C[C@@]2(C)[C@H]1CC[C@]2(OC(=O)c1ccccc1)C(=O)CO [drawing 12] |  |  | 85 | 1.41 |  |
| CCCCCC(=O)O[C@]1(C(=O)CO)CC[C@H]2[C@@H]3CCC4=CC(=O)CC[C@]4(C)[C@H]3[C@@H](O)C[C@@]21C [drawing 27] | 64 | 5.68 |  |  |  |
| CCCCCCC(=O)O[C@]1(C(=O)CO)CC[C@H]2[C@@H]3CCC4=CC(=O)CC[C@]4(C)[C@H]3[C@@H](O)C[C@@]21C [drawing 19] |  |  | 15 | > 100 |  |
| CCC(=O)O[C@]1(C(=O)CO)CC[C@H]2[C@@H]3CCC4=CC(=O)CC[C@]4(C)[C@H]3[C@@H](O)C[C@@]21C [drawing 16] |  |  | 85 | 6.31 |  |
| CCCCCCC(=O)O[C@]1(C(=O)CO)CC[C@H]2[C@@H]3CCC4=CC(=O)CC[C@]4(C)[C@H]3[C@@H](O)C[C@@]21C [drawing 15] |  |  | 47 | 6.04 |  |
| C[C@]12CCC(=O)C=C1CC[C@@H]1[C@@H]2[C@@H](O)C[C@@]2(C)[C@H]1CC[C@]2(OC(=O)C1CCCC1)C(=O)CO [drawing 31] | 27 | > 100 |  |  |  |
| C[C@]12CCC(=O)C=C1CC[C@@H]1[C@@H]2[C@@H](O)C[C@@]2(C)[C@H]1CC[C@]2(OC(=O)Cc1ccccc1)C(=O)CO [drawing 20] |  |  | 5 | > 100 |  |
| CCCCCC(=O)O[C@]1(C(=O)CO)CC[C@H]2[C@@H]3CCC4=CC(=O)CC[C@]4(C)[C@H]3[C@@H](O)C[C@@]21C [drawing 14] |  |  | 65 | 3.25 |  |
| C[C@]12CCC(=O)C=C1CC[C@@H]1[C@@H]2[C@@H](O)C[C@@]2(C)[C@H]1CC[C@]2(O)C(=O)CO [cortisol] |  |  |  |  | minimal effect on intraocular pressure |
| CCCC(=O)O[C@]1(C(=O)CO)CC[C@H]2[C@@H]3CCC4=CC(=O)CC[C@]4(C)[C@H]3[C@@H](O)C[C@@]21C [drawing 13] |  |  | 86 | 1.97 |  |
| CCCCCCC(=O)O[C@]1(C(=O)CO)CC[C@H]2[C@@H]3CCC4=CC(=O)CC[C@]4(C)[C@H]3[C@@H](O)C[C@@]21C [drawing 29] | 56 | 9.29 |  |  |  |
| CC(C)C(=O)O[C@]1(C(=O)CO)CC[C@H]2[C@@H]3CCC4=CC(=O)CC[C@]4(C)[C@H]3[C@@H](O)C[C@@]21C [drawing 17] |  |  | 84 | 7.07 |  |
| C[C@]12CCC(=O)C=C1CC[C@@H]1[C@@H]2[C@@H](O)C[C@@]2(C)[C@H]1CC[C@]2(OC(=O)Cc1ccccc1)C(=O)CO [drawing 22] | 81 | 2.85 |  |  |  |
| C[C@]12CCC(=O)C=C1CC[C@@H]1[C@@H]2[C@@H](O)C[C@@]2(C)[C@H]1CC[C@]2(OC(=O)c1ccccc1)C(=O)CO [drawing 28] | 62 | 7.46 |  |  |  |
| CCCC(=O)O[C@]1(C(=O)CO)CC[C@H]2[C@@H]3CCC4=CC(=O)CC[C@]4(C)[C@H]3[C@@H](O)C[C@@]21C [drawing 24] | 77 | 2.94 |  |  |  |
| C[C@]12CCC(=O)C=C1CC[C@@H]1[C@@H]2[C@@H](O)C[C@@]2(C)[C@H]1CC[C@]2(OC(=O)C1CCCC1)C(=O)CO [drawing 11] |  |  | 88 | 1.35 |  |
| C[C@]12CCC(=O)C=C1CC[C@@H]1[C@@H]2[C@@H](O)C[C@@]2(C)[C@H]1CC[C@]2(O)C(=O)CO [drawing 23] | 75 | 2.9 |  |  |  |
| CC(C)C(=O)O[C@]1(C(=O)CO)CC[C@H]2[C@@H]3CCC4=CC(=O)CC[C@]4(C)[C@H]3[C@@H](O)C[C@@]21C [drawing 30] | 62 | 15.6 |  |  |  |

From US10188667B2, “Pharmaceutical compositions and methods of use of 4-pregenen-11β-17-21-triol-3,20-dione derivatives” (ALLERGAN, INC., priority 2011, dated 2019)
